Assay results: paper PMC9144402, “An Octopus-Derived Peptide with Antidiuretic Activity in Rats” (Marine Drugs, 2022)
Positions of bridges follow the written chain, without caps; N, C: chain ends. Residues, ends and D or L forms follow the SMILES beside them. No end group written: not given here.

Assays:
[1] = tested on: Sprague-Dawley (SD) rats; experiment: Antidiuretic experiment in SD rats (single tail intravenous injection, metabolic cage); assay type: in vivo, rat
[2] = tested on: HEK293T human kidney cells; experiment: CCK-8 cell viability assay and morphology, HEK293T; assay type: cell-based; conditions: for viable HEK293T cells: 0.1–50 μM
Protocol: Human kidney HEK293T cells were obtained from the American Type Culture Collection (ATCC, Manassas, VA, USA). The 293T cells were grown in DMEM supplemented with 10% fetal bovine serum (HyClone, Logan, UT, USA) and penicillin–streptomycin. Cells were incubated at 37 °C in a humidified atmosphere with 95% air/5% CO2. HEK293T cells (5 × 10^3) were incubated in 96-well plates to measure cell viability using a Cell Counting Kit-8 (CCK-8; Dojindo Laboratories, Kumamoto, Japan). After overnight incubation, the medium was changed to fresh medium containing CPT at doses of 50~0.1 μM in three wells each. Then, the cells were incubated for 24, 48, or 72 h and photographed under a phase-contrast microscope. We added 100 μL of fresh medium and 10 μL of CCK-8 solution to each well. After incubation for 3 h at 37 °C, the optical density (OD) at 450 nm was measured using a Spectramax i3x instrument (Molecular Devices, San Jose, CA, USA). The cell viability was calculated as follows: cell viability (%) = (OD (experiment) − OD (blank))/(OD (control) − OD (blank)) × 100%

[3] = tested on: Sprague-Dawley (SD) rats; experiment: Death and signs of toxicity after intravenous injection in SD rats; assay type: in vivo, rat; conditions: for death or signs of toxicity: injection, 'the same doses' (AVP: data not shown)
[4] = tested on: rat V1bR; design: method as in PMID 9264324; conditions: ref [8]; cited from earlier work
[5] = tested on: rat V2R; design: method as in PMID 9264324; conditions: ref [8]; cited from earlier work
[6] = administered intravenously; no reference printed ('generally known'); cited from earlier work
[7] = target: T1, human OXTR (Homo sapiens, UniProt P30559); experiment: OXTR functional assay, agonist effect (intracellular Ca^2+ increase, fluorimetry, transfected ECV304 cells); assay type: cell-based; conditions: up to 50 μM, RT, % of control response (1 µM OXT), triplicate
T1 construct: host or cells: ECV304
T1 sequence (P30559 1-389): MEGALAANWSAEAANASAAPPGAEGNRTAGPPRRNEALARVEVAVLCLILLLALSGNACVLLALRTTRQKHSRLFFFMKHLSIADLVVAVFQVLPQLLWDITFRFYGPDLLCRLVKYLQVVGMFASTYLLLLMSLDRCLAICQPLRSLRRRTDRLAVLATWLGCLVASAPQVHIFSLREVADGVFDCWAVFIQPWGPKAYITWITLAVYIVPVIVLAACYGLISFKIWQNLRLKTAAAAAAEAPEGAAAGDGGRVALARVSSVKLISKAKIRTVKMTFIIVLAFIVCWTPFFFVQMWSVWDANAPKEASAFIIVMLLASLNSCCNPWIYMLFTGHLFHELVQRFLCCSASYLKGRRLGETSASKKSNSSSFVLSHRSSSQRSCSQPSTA
Protocol: (§1) Detailed information about the cells tested and other experimental conditions are described in Table 2. Briefly, cells were transfected with a recombinant expression vector capable of expressing each type of human OXT/AVP receptor. To evaluate the agonist effects on OXTR, V1aR, and V1bR, the intracellular Ca^2+ increase after treatment with OTP or CPT was measured by fluorimetry. […] For V2R receptors, cells were treated with peptides with or without the stimulant for 30 min. After that, cyclic AMP (cAMP) concentrations were measured by homogeneous time-resolved fluorescence (HTRF). The results were represented as the percent submaximal response achieved by the stimulant. All experiments were performed in triplicate. Data are presented as the mean ± standard error of the mean. The 50% effective concentration (EC50) and 50% inhibitory concentration (IC50) values were determined using a 4-parameter logistic fitting of a dose–response curve using SigmaPlot 10.0 (Systat Software, Palo Alto, CA, USA).

[8] = target: T1, human OXTR; experiment: OXTR functional assay, antagonist effect (30 nM OXT-induced intracellular Ca^2+, fluorimetry, ECV304 cells); assay type: cell-based
Protocol: as §1

[9] = target: T2, human V1aR (Homo sapiens, UniProt P37288); experiment: V1aR functional assay, agonist effect (intracellular Ca^2+ increase, fluorimetry, CHO cells); assay type: cell-based; conditions: up to 50 μM, RT, % of control response (1 µM AVP), triplicate
T2 construct: host or cells: CHO
Protocol: as §1

[10] = target: T2, human V1aR; experiment: V1aR functional assay, antagonist effect (10 nM AVP-induced intracellular Ca^2+, fluorimetry, CHO cells); assay type: cell-based
Protocol: as §1

[11] = target: T3, human V1bR (Homo sapiens, UniProt P47901); experiment: V1bR functional assay, agonist effect (intracellular Ca^2+ increase, fluorimetry, RBL cells); assay type: cell-based
T3 construct: host or cells: RBL
T3 sequence (P47901 1-424): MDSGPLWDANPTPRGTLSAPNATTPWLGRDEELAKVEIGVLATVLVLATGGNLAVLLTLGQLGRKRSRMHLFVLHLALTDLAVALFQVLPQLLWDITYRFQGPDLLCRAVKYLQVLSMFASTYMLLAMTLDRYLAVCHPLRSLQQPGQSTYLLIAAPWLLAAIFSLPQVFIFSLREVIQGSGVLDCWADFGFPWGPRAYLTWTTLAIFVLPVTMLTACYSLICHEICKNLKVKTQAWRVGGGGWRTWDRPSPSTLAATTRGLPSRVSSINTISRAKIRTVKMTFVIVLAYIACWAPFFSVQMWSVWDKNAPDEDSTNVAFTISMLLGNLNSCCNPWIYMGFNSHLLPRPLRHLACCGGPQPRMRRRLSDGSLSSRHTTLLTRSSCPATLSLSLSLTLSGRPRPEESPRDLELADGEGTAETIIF
Protocol: as §1

[12] = target: T4, human V2R (Homo sapiens, UniProt P30518); experiment: V2R functional assay, agonist effect (cAMP accumulation, HTRF, CHO cells); assay type: cell-based
T4 construct: host or cells: CHO
Protocol: as §1

[13] = treatment of nocturia, enuresis, and diabetes insipidus; ref [26]; cited from earlier work
Description: (§2) Currently, desmopressin is the antidiuretic drug of choice for the treatment of excessive and/or uncontrolled urination. […] Although desmopressin is generally considered safe and efficacious in the treatment o ...

[14] = tested on: V1aR; conditions: no reference given; cited from earlier work
Description: as §2

[15] = tested on: V1aR; conditions: ref [17]; cited from earlier work
[16] = target: human AVP type 2 receptor (human) (UniProt P30518)
[17] = target: human oxytocin receptor (human) (UniProt P30559)
[18] = target: T5, human AVP type 1b receptor (human) (UniProt P47901)
T5 sequence: T3 sequence (P47901 1-424)

[19] = target: human AVP type 2 receptor (human) (UniProt P30518); remark: listed apart in the source
[20] = target: human oxytocin receptor (human) (UniProt P30559); remark: listed apart in the source
[21] = target: human vasopressin receptor V1aR (human) (UniProt P37288)
[22] = 24 h after treatment, CCK-8, triplicate
[23] = 48 h after treatment, CCK-8, triplicate
[24] = nanomolar level of CPT (Figure 2E, 36.55 nM), calculated by curve-fitting

T2 sequence (P37288 whole entry): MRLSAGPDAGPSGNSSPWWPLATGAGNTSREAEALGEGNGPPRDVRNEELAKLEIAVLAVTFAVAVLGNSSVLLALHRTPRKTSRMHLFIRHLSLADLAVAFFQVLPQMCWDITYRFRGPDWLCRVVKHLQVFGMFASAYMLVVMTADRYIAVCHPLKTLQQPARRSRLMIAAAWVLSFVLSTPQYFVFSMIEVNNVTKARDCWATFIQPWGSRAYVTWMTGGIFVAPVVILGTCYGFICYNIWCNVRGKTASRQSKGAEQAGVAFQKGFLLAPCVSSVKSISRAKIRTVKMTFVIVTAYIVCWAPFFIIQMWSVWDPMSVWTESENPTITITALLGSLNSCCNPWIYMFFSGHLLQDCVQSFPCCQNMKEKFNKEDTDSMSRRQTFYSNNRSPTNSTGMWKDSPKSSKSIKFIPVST
Sequence of human vasopressin receptor V1aR (human) (P37288 whole entry): as above

With NC(=O)CC[C@@H]1NC(=O)[C@H](Cc2ccccc2)NC(=O)[C@H](Cc2ccc(O)cc2)NC(=O)[C@@H](N)CSSC[C@@H](C(=O)N2CCC[C@H]2C(=O)N[C@@H](CCCN=C(N)N)C(=O)NCC(N)=O)NC(=O)[C@H](CC(N)=O)NC1=O [AVP, arginine vasopressin] as the molecule, how does the “antidiuretic effect (in words)” value ([1]; SD rats, 0.001 mg/mL/kg micro intravenous tail administration) read?
The value was “shows an antidiuretic effect”.

What about the “viable HEK293T cells” value [2, 22] of the same molecule?
Its value is “Over 98%”.

And the “viable HEK293T cells” value [2, 23]?
The value was “Over 98%”.

What about the “viability compared to PBS control (in words)” value ([2]; 72 h, 0.1–10 μM, CCK-8, triplicate) of the same molecule?
Its value is “slightly increase the viability”.

And the lethality ([3]; 0.001 mg/mL/kg micro intravenous tail administration)?
The lethality was “occasionally lethal”.

And the “death or signs of toxicity” value [3]?
Its value is “occasionally caused death”.

And the EC50 [4]?
Its EC50 is 1.31 nM.

And the EC50 [5]?
Its EC50 is 43.5 nM.

And the half-life [6]?
The half-life was “several minutes”.

Which “OXTR-mediated intracellular Ca^2+ increase (agonist effect)” value [7] does the source give for CC[C@H](C)[C@H](NC(=O)[C@@H]1CCCN1C(=O)[C@@H]1CSSC[C@H](N)C(=O)N[C@@H](Cc2ccc(O)cc2)C(=O)N[C@@H](Cc2ccccc2)C(=O)N[C@@H](CCCNC(=N)N)C(=O)N[C@@H](CC(N)=O)C(=O)N1)C(=O)NCC(N)=O [CPT, cephalotocin] (H-CYFRNCPIG-NH2; disulfide 1-6) here?
Its value is “not activated”.

And the IC50 ([8]; ECV304, stimulant 30 nM OXT, RT, fluorimetry, 4-parameter logistic fitting, triplicate)?
The IC50 was greater than 50000 nM.

And the “expected effect on OXTR, nanomolar level” value [8, 24]?
The value was less than 20%.

And the “V1aR-mediated intracellular Ca^2+ increase (agonist effect)” value [9]?
The value was “not activated”.

And the IC50 [10]?
Its IC50 is 1230 nM.

What about the inhibition at 1.65 µM ([10]; CHO, micromolar level (Figure 2F, 1.65 μM), calculated by curve-fitting, read-out: expected V1aR inhibition, micromolar level) of the same molecule?
The inhibition at 1.65 µM was no less than 50%.

And the “expected effect on V1aR, nanomolar level” value [10, 24]?
The value was less than 20%.

And the EC50 ([11]; RBL, intracellular Ca^2+, fluorimetry, RT, 4-parameter logistic fitting, triplicate)?
Its EC50 is 10 nM.

What about the “expected V1bR activation, nanomolar level” value [11, 24] of the same molecule?
The value was ~ 80%.

What about the EC50 ([12]; CHO, cAMP, HTRF, 30 min RT, 4-parameter logistic fitting, triplicate) of the same molecule?
The EC50 was 12.1 nM.

And the “expected V2R activation, nanomolar level” value [12, 24]?
Its value is ~ 80%.

What about the cell morphology [2] of the same molecule?
Its cell morphology is “unchanged”.

What about the “viable HEK293T cells” value [2, 22] of the same molecule?
The value was “Over 98%”.

What about the “viable HEK293T cells” value [2, 23] of the same molecule?
The value was “Over 98%”.

What about the “death or signs of toxicity” value [3] of the same molecule?
Its value is “did not cause any death or signs of toxicity”.

And the lethality ([3]; single intravenous injection (1 mg/mL/kg))?
Its lethality is “did not kill the experimental animals”.

Which “osmolarity (in words)” value ([1]; male rats under 200 g, single microvenous injection, n=6 for each group) does the source give for “Mpr-YFQNCP(D-Arg)G-NH2 (disulfide bond) (disulfide) [Desmopressin, 1-deamino-8-D-arginine vasopressin, positive control]” here?
Its value is “no change”.

And the “death or signs of toxicity” value [3]?
The value was “did not cause any death or signs of toxicity”.

What about the half-life [6] of the same molecule?
The half-life was “several hours”.

And the serious adverse effect [13]?
The serious adverse effect was “hyponatremia”.

And the V1aR-mediated pressor activity [14]?
Its V1aR-mediated pressor activity is “low”.

With inotocin as the molecule, how does the “V1aR activity (in words)” value [15] read?
Its value is “selective antagonists of V1aR”.

B1: Octopressin (peptide)
peptide: CYWTSCPIG-NH2
modifications: disulfide 1-6; N-terminus assumed
SMILES: CC[C@H](C)[C@H](NC(=O)[C@@H]1CCCN1C(=O)[C@@H]1CSSC[C@H](N)C(=O)N[C@@H](Cc2ccc(O)cc2)C(=O)N[C@@H](Cc2c[nH]c3ccccc23)C(=O)N[C@@H]([C@@H](C)O)C(=O)N[C@@H](CO)C(=O)N1)C(=O)NCC(N)=O
Which V2R-mediated cAMP accumulation (agonist effect) in CHO cells expressing human V2R, percent of the control response at 50 μM OTP [16] does the source give for B1 here?
Its V2R-mediated cAMP accumulation (agonist effect) in CHO cells expressing human V2R, percent of the control response at 50 μM OTP is less than 30%.

And the antagonist effect on intracellular Ca^2+ release induced by 30 nM OXT in ECV304 cells expressing human OXTR (pair blocked: OXT and OXTR), inhibition rate at 50 μM OTP [17]?
The antagonist effect on intracellular Ca^2+ release induced by 30 nM OXT in ECV304 cells expressing human OXTR (pair blocked: OXT and OXTR), inhibition rate at 50 μM OTP was 30%.

B2: Cephalotocin (peptide)
peptide: CYFRNCPIG-NH2
modifications: disulfide 1-6; N-terminus assumed
SMILES: CC[C@H](C)[C@H](NC(=O)[C@@H]1CCCN1C(=O)[C@@H]1CSSC[C@H](N)C(=O)N[C@@H](Cc2ccc(O)cc2)C(=O)N[C@@H](Cc2ccccc2)C(=O)N[C@@H](CCCNC(=N)N)C(=O)N[C@@H](CC(N)=O)C(=O)N1)C(=O)NCC(N)=O
With B2 as the molecule, how does the EC50 of V1bR-mediated intracellular Ca^2+ release (agonist effect) in RBL cells expressing human V1bR, fluorimetry [18] read?
The EC50 of V1bR-mediated intracellular Ca^2+ release (agonist effect) in RBL cells expressing human V1bR, fluorimetry was 10 nM.

And the EC50 of V2R-mediated cAMP accumulation (agonist effect) in CHO cells expressing human V2R, HTRF [19]?
The EC50 of V2R-mediated cAMP accumulation (agonist effect) in CHO cells expressing human V2R, HTRF was 12.1 nM.

And the IC50 of the antagonist effect on intracellular Ca^2+ release induced by 30 nM OXT in ECV304 cells expressing human OXTR (pair blocked: OXT and OXTR) [20]?
The IC50 of the antagonist effect on intracellular Ca^2+ release induced by 30 nM OXT in ECV304 cells expressing human OXTR (pair blocked: OXT and OXTR) was greater than 50000 nM.

What about the IC50 of the antagonist effect on intracellular Ca^2+ release induced by 10 nM AVP in CHO cells expressing human V1aR (pair blocked: AVP and V1aR) [21] of the same molecule?
The IC50 of the antagonist effect on intracellular Ca^2+ release induced by 10 nM AVP in CHO cells expressing human V1aR (pair blocked: AVP and V1aR) was 1230 nM.
